Assay results: patent US20030045482A1, “Using D-ribose with or without anti-microbial agents to enhance healing and subsequent recovery by both synthesizing and sparing NAD derivatives” (priority 2000, published 2003)

Experiments:
clean wounds = test: rate of healing of clean wounds; type: in vivo; details: ribose by itself
Description: (§1) Only with respect to the skin has ribose been used for healing purposes, and these are for wound healing in which ribose in combination with other nutrients improved the rate of healing. […] It then became reasonable to assume that this combination should be extended to internal wounds.

appetite = appetite after D-ribose aqueous solution given during a meal; type: in vivo, people
Description: This brings up the paradoxical role that ribose plays with respect to appetite. Ribose is offered to consumers primarily because it is rate-limiting in the production of phosphoribosylpyrophosphate (PRPP), a precursor for salvage and for de novo adenine nucloeotide synthetic pathways, which maintain, AMP and ADP (adenosine diphosphate) for re-synthesis of ATP. The high-energy bonds of ATP are the direct source for muscle contraction including myocardial contractions but also energize every cell in the body, especially the immune system under attack. The presence of de novo D-ribose not only enables ATP to be synthesized much faster, but its presence also serves to stimulate the salvage of these nucleotides. With this in mind, a curious thing has been observed. […] The only explanation for this is that the salvage of these nucleotides especially ATP is stimulated by forcibly spraying the ribose onto the tongue. This causes the stomach to send out less of the hormone ghrelin and a full feeling ensues with less food. If a person is ill, care must be taken not to spray ribose forcibly on the tongue by pump action or compressed gas, but rather have it be swallowed immediately or given parenterally.

ATP synthesis = details: with de novo D-ribose; 72 to 96 hours ordinarily required from glucose; cited from earlier work
infected wounds = test: rate of healing of infected wounds, ribose combined with antibiotics; type: in vivo
Description: as §1

## O=C[C@H](O)[C@H](O)[C@H](O)CO [D-ribose]
Clean wounds
  rate of healing of clean wounds: will improve the rate of healing of clean wounds
appetite; aqueous solution sprayed forcibly by pump action on the tongue during a meal
  effect on appetite: causes the appetite to abate in many people
appetite; ribose swallowed
  effect on appetite: far less such effect
ATP synthesis
  time for synthesis of ATP: ≥ 8 h
Infected wounds
  rate of healing of infected wounds: will improve the rate of healing infected wounds
